Assay results: US4711898A, “4-quinolone derivatives having anti-inflammatory, anti-allergic, antitussive, expectorant and antithrombotic activity” (Nippon Shinyaku Co., Ltd., priority 1982, dated 1987)

Tests used:
[1] = test system: passive cutaneous anaphylaxis (DNP-As homocytotropic antiserum); test: passive cutaneous anaphylatic assay (PCA) in rats; assay type: in vivo, Wistar strain rats; settings: Rattus norvegicus, po, 1 h, 10 mg/kg orally, one hour before antigen, read-out: PCA Inhibition Ratio %
Procedure: (§1) The compounds of the present invention have been evaluated for their anti-allergenic action by passive cutaneous anaphylatic assay (PCA) in rats and by measuring the anti-SRS-A action using ileus of guinea pigs.
(i) Antiserum abundant in homocytotropic antibody is prepared by the same method as Tada and Okumura did (cf. Journal of Immunology, vol. 106, page 1002, 1971). Thus, 1 mg (calculated as an amount of protein) of DNP-As (2,4-dinitrophenylcoupled ascaris extract) prepared by methods of Strejan and Campbell (Journal of Immunology, vol. 98, p. 893, 1967) and of Eisen (Journal of Amer. Chem. Soc., vol. 75, p 4593, 1953) and 1×10^10pertussis vaccine are administered to each paw of Wistar strain rats (180 to 200 grams body weights) by dividing the dose by four. Five days later, 0.5 mg of DNP-As is administered into muscle of back. Eight days later from the initial immunization, blood is taken from discending aorta under anesthetizing with ether, the resulting serum is stored at -80° and is melted before use.
(ii) Effect of tested compounds is investigated as follows:
Anti-serum obtained by th method (i) is diluted with physiological saline solution double by double successively and 0.05 ml of each diluted solution is administered into the back of Wistar strain rats (140 to 160 grams body weight) intradermally. After 72 hours, a solution of 2 mg (calculated as protein) of DNP-As and 2.5 mg of Evans Blue dissolved in 1 ml of physiological saline solution is administered intraveously at a dose of 5 ml/kg. After 30 minutes from the antigen solution administration, the animals are killed and the diameters of blue spots which appeared at the place where antiserum was administered were measured. The PCA test is conducted by the same method as already described using a diluted solutions of antiserum which always show 10 mm or more of spot diameters and the effect of the test compounds is judged. Thus antiserum diluted solutions are administered into two places in the back. Test compounds are administered orally at the dose of 10 mg/kg one hour before administration of the antigen solution. From the skin of reacted parts of killed animals, leaked or emitted dyestuff is extracted and the amount of the dyestuff is measured. The inhibition ratio is calculated by the following expression: [formula] in which A' is an amount of dyestuff in the group treated with the test compounds and A is that in the control group.

[2] = test system: SRS-A (slow reacting substance of anaphylaxis) contraction of ileum; test: Anti-SRS-A action using ileus of guinea pigs; assay type: cell-based, Hartley strain male guinea pigs; settings: Cavia porcellus, 5 min, 1/1000 mM; guinea pig ileum; SRS-A 20 units; compound five minutes before; read-out: 1/1000 mM SRS-A Inhibition Ratio %
Procedure: as §1
Anti-SRS-A action (An anti-acton against slow reacting substance of anaphylaxis).
Hartley strain male guinea pigs (300 to 350 grams body weight) are killed and 1.0 to 1.5 cm of ileum is immeidiately excised from ileocecal parts and is suspended in 10 ml of Tyrode solution (95% 02 -5% CO2 saturation) containing 10^-7 g/ml of atropine and 10^-6 g/ml of pyrilamine. SRS-A (20 units) (the amount of SRS-A showing the same contradiction as 5 ng of histamine is defined as 1 unit) prepared by using sensitized guinea pig lung is given to cause contraction there. Then antagonistic action of test compounds treated five minutes ago against the contraction is measured and recorded via isotonic transducer. [formula] in which A' is a height of contraction of SRS-A+test compound and A is that of SRS-A.

[3] = test system: carrageenin edema; test: Carrageenin edema at the hind foot of rats; assay type: in vivo, SD-strain rats; settings: Rattus norvegicus, po, 3 h, 200 mg/kg per os, one hour before carrageenin; foot volume three hours after; read-out: % Inhibition (carrageenin edema)
Procedure: The anti-inflammatory action of the compounds of the present invention were evaluated by measuring the inhibition against carrageenin edema as set forth below. Carrageenin edema at the hind foot of rats: Experimental method. SD-strain rats of body weights of around 150 grams were used, each group consisting of five rats. A solution (0.1 ml) of 0.5% carrageenin dissolved in physiological saline water was subcutaneously injected into the right hind foot pat of the rats and, one hour prior to the injection of carrageenin, 200 mg/kg of test compound was given per os. Foot volumes of the rats before the carrageenin treatment and those of three hours after the treatment were measured and the differences were compared with those of the control group to adopt as a target of the effect of the compounds.

| SMILES | inhibition in vivo at 10 mg/kg [1] [%] | inhibition at 1 µM [2] [%] | inhibition in vivo at 200 mg/kg [3] [%] |
| --- | --- | --- | --- |
| CCCOC(=O)c1cccc2c(=O)cc(-c3ccccc3Cl)[nH]c12 [Example 111] | 2.4 | 7.8 |  |
| CCCCCCOC(=O)c1cccc2c(=O)cc(-c3ccccc3Cl)[nH]c12 [Example 113] | 10.5 | 20.5 |  |
| O=C(OCCCO)c1cccc2c(=O)cc(-c3ccccc3Cl)[nH]c12 [Example 115] | 12.4 | 27.4 |  |
| O=C(OCCCCCO)c1cccc2c(=O)cc(-c3ccccc3Cl)[nH]c12 [Example 116] | 15 | 23.7 |  |
| O=C(OCCCCCCO)c1cccc2c(=O)cc(-c3ccccc3Cl)[nH]c12 [Example 117] | 50 | 8.7 |  |
| O=C(OCCOc1ccccc1)c1cccc2c(=O)cc(-c3ccccc3Cl)[nH]c12 [Example 119] | 47 | 73.4 |  |
| N#CCOC(=O)c1cccc2c(=O)cc(-c3ccccc3Cl)[nH]c12 [Example 121] | 54.4 | 3.4 |  |
| CC(=O)COC(=O)c1cccc2c(=O)cc(-c3ccccc3Cl)[nH]c12 [Example 122] | 14.7 | 20.4 |  |
| CCOC(=O)COC(=O)c1cccc2c(=O)cc(-c3ccccc3Cl)[nH]c12 [Example 123] | 16 | 17.4 |  |
| CCOC(=O)CCCOC(=O)c1cccc2c(=O)cc(-c3ccccc3Cl)[nH]c12 [Example 124] |  |  | 14.5 |
| O=C(OCC(O)CO)c1cccc2c(=O)cc(-c3ccccc3Cl)[nH]c12 (centres unmarked) [Example 126] | 15.3 | 19.2 |  |
| CC(C)COCCOC(=O)c1cccc2c(=O)cc(-c3ccccc3Cl)[nH]c12 [Example 127] | 13.3 | 25.4 |  |
| O=C(OCCOCCO)c1cccc2c(=O)cc(-c3ccccc3Cl)[nH]c12 [Example 128] | 10.7 | 25 |  |
| CCOCCOCCOC(=O)c1cccc2c(=O)cc(-c3ccccc3Cl)[nH]c12 [Example 129] | 5.4 | 10.2 |  |
| O=C(OCCO)c1cccc2c(=O)cc(-c3cccc(Cl)c3)[nH]c12 [Example 132] | 18.6 | 55.5 |  |
| Cc1ccccc1-c1cc(=O)c2cccc(C(=O)OCCO)c2[nH]1 [Example 134] | 10.8 | 5.2 |  |
| Cc1ccc(-c2cc(=O)c3cccc(C(=O)OCCO)c3[nH]2)cc1 [Example 135] | 35 | 27.3 |  |
| Cc1ccc(-c2cc(=O)c3cccc(C(=O)OCCO)c3[nH]2)cc1C [Example 137] | 20 | 10.8 |  |
| COc1ccc(-c2cc(=O)c3cccc(C(=O)OCCO)c3[nH]2)cc1 [Example 138] | 12.7 | 25.4 |  |
| COc1ccc(-c2cc(=O)c3cccc(C(=O)OCCO)c3[nH]2)c(OC)c1 [Example 139] | 18.4 | 63.3 |  |
| COc1ccc(-c2cc(=O)c3cccc(C(=O)OCCO)c3[nH]2)cc1OC [Example 140] | 19.4 | 18.3 |  |
